Reference: publication PMC6321388, “Molecular Mechanism of Action of RORγt Agonists and Inverse Agonists: Insights from Molecular Dynamics Simulation” (Molecules, 2018)

Legend:
RORγt [1] = molecular target: T1, RORγt (Homo sapiens, UniProt P51449); assay: FRET coactivator-peptide recruitment assay with human RORγt-LBD (inverse agonist, max. -[…]); assay type: binding
T1 construct: gene RORC; RORγt-LBD

RORγt [2] = molecular target: T1, RORγt; assay: FRET coactivator-peptide recruitment assay with human RORγt-LBD (agonist, max. act. […]); assay type: binding

T1 sequence (Q15788 2-1441): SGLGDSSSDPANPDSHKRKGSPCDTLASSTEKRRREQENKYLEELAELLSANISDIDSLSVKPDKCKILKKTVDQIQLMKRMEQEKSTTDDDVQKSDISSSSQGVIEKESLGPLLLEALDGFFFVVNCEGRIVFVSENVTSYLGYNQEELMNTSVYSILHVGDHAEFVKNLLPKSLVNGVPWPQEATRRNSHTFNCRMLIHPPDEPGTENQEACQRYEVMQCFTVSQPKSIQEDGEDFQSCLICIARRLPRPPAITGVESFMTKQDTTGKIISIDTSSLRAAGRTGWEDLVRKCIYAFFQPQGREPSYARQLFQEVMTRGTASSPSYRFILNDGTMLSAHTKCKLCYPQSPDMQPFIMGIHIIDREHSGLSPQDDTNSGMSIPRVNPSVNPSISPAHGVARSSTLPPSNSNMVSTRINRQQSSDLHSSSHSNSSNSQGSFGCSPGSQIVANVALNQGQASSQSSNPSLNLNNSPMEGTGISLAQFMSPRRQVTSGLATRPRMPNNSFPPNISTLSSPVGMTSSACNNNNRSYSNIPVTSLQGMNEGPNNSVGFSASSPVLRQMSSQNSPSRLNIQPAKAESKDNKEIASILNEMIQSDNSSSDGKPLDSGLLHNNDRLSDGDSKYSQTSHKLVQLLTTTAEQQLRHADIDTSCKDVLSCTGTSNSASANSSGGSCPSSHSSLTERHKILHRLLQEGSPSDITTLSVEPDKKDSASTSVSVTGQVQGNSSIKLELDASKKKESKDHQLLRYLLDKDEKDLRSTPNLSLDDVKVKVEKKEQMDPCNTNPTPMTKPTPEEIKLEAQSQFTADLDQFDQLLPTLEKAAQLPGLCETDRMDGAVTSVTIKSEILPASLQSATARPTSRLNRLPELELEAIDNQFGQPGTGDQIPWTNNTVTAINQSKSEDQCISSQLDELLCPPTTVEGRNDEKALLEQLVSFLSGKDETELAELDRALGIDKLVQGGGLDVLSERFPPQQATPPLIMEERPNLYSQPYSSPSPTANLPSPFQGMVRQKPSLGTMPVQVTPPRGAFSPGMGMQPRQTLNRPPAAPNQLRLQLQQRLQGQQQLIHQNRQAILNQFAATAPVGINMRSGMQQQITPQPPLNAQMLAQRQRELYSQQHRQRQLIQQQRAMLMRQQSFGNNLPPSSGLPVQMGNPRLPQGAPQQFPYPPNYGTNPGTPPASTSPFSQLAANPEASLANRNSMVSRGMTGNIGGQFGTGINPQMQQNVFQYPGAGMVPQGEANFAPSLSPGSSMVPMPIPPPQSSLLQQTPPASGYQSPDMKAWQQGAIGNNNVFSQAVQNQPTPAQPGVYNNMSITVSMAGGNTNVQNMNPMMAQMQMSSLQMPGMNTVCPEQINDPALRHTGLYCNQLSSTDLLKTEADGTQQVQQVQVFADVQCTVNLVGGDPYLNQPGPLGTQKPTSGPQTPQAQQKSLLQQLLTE
T1 sequence (P51449 265-507): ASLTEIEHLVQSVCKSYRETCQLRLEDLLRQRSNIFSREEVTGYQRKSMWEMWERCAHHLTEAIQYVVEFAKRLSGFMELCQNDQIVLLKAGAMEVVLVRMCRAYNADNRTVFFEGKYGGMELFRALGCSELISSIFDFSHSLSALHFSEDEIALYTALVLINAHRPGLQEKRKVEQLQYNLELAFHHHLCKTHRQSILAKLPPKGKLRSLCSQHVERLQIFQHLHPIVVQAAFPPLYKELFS

Structure (SMILES)	IC50 (RORγt [1])	EC50 (RORγt [2])
CC(=O)N1CCN(c2ccc(N(C3CCC3)S(=O)(=O)Cc3ccccc3)cc2)CC1 [GT]	53 nM	–
CC(=O)N1CCN(c2ccc3c(c2)CCCN3S(=O)(=O)c2ccccc2)CC1 [compound 1, agonist 1]	–	3700 nM
